From patent publication US8859541B2, “6-alkynylpyridines” (Boehringer Ingelheim International GmbH, priority 2012, dated 2014)

Tests used:
XIAP BIR3 = target: T1, XIAP BIR3 (Homo sapiens, UniProt P98170); assay: XIAP BIR3 binding assay (DELFIA), displacement of SMAC peptide; conditions: GST-fusion BIR3 domain (aa 241 to 356) 10 nM, SMAC peptide 10 nM; activity of the (S)-isomers
T1 construct: covering amino acids 241 to 356; XIAP BIR3; made in house; host or cells: E. coli
Procedure, shortened: (§1)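 Each BIR3 domain (10 nM) incubated with biotinylated N-terminal SMAC peptide (10 nM) and compound for 1 h at room temp in Tris/NaCl buffer with BSA, DTT and Triton X-100. Captured on streptavidin plates; bound BIR3 detected by Eu-labelled anti-GST time-resolved fluorescence, giving IC50 values.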

cIAP1 BIR3 = target: T2, cIAP1 BIR3 (Homo sapiens, UniProt Q13490); assay: cIAP1 BIR3 binding assay (DELFIA), displacement of SMAC peptide; conditions: GST-fusion BIR3 domain (aa 256 to 363) 10 nM, SMAC peptide 10 nM; activity of the (S)-isomers
T2 construct: covering amino acids 256 to 363; cIAP1 BIR3; made in house; host or cells: E. coli
Procedure, shortened: as §1

T1 sequence (P98170 241-356): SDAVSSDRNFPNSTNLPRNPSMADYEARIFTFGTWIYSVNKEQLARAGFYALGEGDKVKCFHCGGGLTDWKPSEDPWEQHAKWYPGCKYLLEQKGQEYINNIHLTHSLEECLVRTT
T2 sequence (Q13490 256-363): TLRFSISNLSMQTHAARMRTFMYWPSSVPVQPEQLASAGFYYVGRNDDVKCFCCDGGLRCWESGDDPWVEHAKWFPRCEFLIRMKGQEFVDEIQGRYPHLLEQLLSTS

SMILES	IC50 (XIAP BIR3)	IC50 (cIAP1 BIR3)
CC(N)C(=O)Nc1cc2ccccc2c(C#Cc2ccccn2)n1 (stereo not drawn) [Example 206, 2-amino-N-[1-(2-pyridin-2-ylethynyl)isoquinolin-3-yl]-propanamide]	3620 nM	880 nM
CC(N)C(=O)Nc1cc2ccccc2c(C#Cc2cccs2)n1 (stereo not drawn) [Example 208, 2-amino-N-[1-(2-thiophen-2-ylethynyl)isoquinolin-3-yl]-propanamide]	467 nM	255 nM
CC(N)C(=O)Nc1cccc(C#Cc2cccc(C(=O)N3CCOCC3)c2)n1 (stereo not drawn) [Example 213, 2-amino-N-[6-[2-[3-(morpholine-4-carbonyl)-phenyl]ethynyl]pyridin-2-yl]propanamide]	9950 nM	2120 nM
CC(N)C(=O)Nc1cccc(C#Cc2cccnc2)n1 (stereo not drawn) [Example 215, 2-amino-N-[6-(2-pyridin-3-ylethynyl)pyridin-2-yl]propanamide]	9700 nM	985 nM
CC(N)C(=O)Nc1cccc(C#Cc2cccs2)n1 (stereo not drawn) [Example 217, 2-amino-N-[6-(2-thiophen-2-ylethynyl)pyridin-2-yl]propanamide]	895 nM	206 nM
COC(=O)c1cccc(C#Cc2cccc(NC(=O)C(C)N)n2)c1 (stereo not drawn) [Example 223, methyl 3-[2-[6-[[2-aminopropanoyl]amino]pyridin-2-yl]ethynyl]benzoate]	2460 nM	2620 nM
CC(N)C(=O)Nc1cc2ccccc2c(C#Cc2cscn2)n1 (stereo not drawn) [Example 226, 2-amino-N-[1-[2-(1,3-thiazol-4-yl)ethynyl]isoquinolin-3-yl]propanamide]	1200 nM	332 nM
Cc1cc(C)cc(C#Cc2nc(NC(=O)C(C)N)cc3ccccc23)c1 (stereo not drawn) [Example 228, 2-amino-N-[1-[2-(3,5-dimethyl-phenyl)ethynyl]isoquinolin-3-yl]propanamide]	1920 nM	1470 nM
CC(N)C(=O)Nc1cc2ccccc2c(C#Cc2cc(F)cc(F)c2)n1 (stereo not drawn) [Example 229, 2-amino-N-[1-[2-(3,5-difluorophenyl)ethynyl]-isoquinolin-3-yl]propanamide]	2420 nM	589 nM
Cc1ccccc1C#Cc1cccc(NC(=O)C(C)N)n1 (stereo not drawn) [Example 232, 2-amino-N-[6-[2-(2-methylphenyl)ethynyl]pyridin-2-yl]propanamide]	1250 nM	672 nM
CC(N)C(=O)Nc1cccc(C#Cc2ccc3cc[nH]c3c2)n1 (stereo not drawn) [Example 234, 2-amino-N-[6-[2-(1H-indol-6-yl)ethynyl]pyridin-2-yl]propanamide]	2730 nM	1230 nM
CC(N)C(=O)Nc1cccc(C#Cc2ccoc2)n1 (stereo not drawn) [Example 240, 2-amino-N-[6-[2-(furan-3-yl)ethynyl]pyridin-2-yl]propanamide]	3020 nM	1340 nM
